pKd: −log10 of the molar value.
What was measured:
BTK [1] = biological target: T1, BTK (Homo sapiens, UniProt Q06187); experiment: TR-FRET saturation binding assay of the BTK tracer
Procedure: To measure the binding affinities between PROTACs and BTK, a time-resolved fluorescence resonance energy transfer (TR-FRET) competition binding assay was developed. A BTK tracer was synthesized by conjugating an ibrutinib-based reversible noncovalent binder with the BODIPY-FL dye (FIG. 1). […] In the presence of the BTK tracer, competition assays were performed to measure the binding affinities between BTK and its inhibitors and PROTACs. […] The very weak BTK binding affinities for PS-RC-1, PS-RC-2, PS-RC-3 and PS-RC-4 explain their minimal BTK degradation effects in cells and further support that the observed growth inhibitory effect of PS-RC-1 in Mino cells is unrelated to the BTK pathway.
Target sequence in this assay (Q06187 whole entry, species assumed): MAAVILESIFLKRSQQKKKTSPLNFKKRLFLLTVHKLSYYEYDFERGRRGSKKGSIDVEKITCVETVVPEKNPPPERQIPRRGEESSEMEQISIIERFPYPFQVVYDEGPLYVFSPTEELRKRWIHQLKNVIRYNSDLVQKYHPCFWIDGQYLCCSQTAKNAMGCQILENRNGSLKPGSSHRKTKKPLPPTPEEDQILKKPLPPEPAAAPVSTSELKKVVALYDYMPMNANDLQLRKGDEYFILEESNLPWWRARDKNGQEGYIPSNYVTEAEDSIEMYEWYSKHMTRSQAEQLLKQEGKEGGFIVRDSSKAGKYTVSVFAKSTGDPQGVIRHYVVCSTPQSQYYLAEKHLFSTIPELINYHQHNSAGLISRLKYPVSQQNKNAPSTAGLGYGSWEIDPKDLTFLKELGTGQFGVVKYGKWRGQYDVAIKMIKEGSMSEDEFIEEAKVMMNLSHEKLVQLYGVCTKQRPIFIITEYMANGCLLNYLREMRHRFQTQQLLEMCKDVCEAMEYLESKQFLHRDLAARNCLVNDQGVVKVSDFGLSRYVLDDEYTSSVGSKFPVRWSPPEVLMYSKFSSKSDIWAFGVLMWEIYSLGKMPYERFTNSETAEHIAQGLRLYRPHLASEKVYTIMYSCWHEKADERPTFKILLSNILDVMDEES

GSPT1 = biological target: T2, GSPT1 (Homo sapiens, UniProt P15170+Q96SW2); experiment: Western blotting for GSPT1 in Mino cells; assay type: cell-based; settings: up to 1000 nM, 24 h, Western blot
T2 construct: host or cells: Mino
Procedure: Panel a. […] Panel b. […] Panel c. […] Panel d-e. […] Panel g.
Mino cells were seeded into the wells of six-well plates at the density of 5×10^5 cells per mL in 2 mL of complete RPMI-1640 culture medium. After overnight adaptation, cells were treated with serially diluted compounds (from 1,000-1.6 nM, 5-fold dilution) for 24 hours. After treatment, whole cell lysates for immunoblotting were prepared by pelleting Mino cells at 4° C. and 200×g for 5 minutes. The resulting cell pellets were washed once with ice-cold PBS and lysed in 1×RIPA lysis buffer (Alfa Aesar, Cat. No. J62524) supplemented with protease and phosphatase inhibitor cocktail (Thermo Fisher, Cat. No. 78430). Lysates were centrifuged at 15,000×g for 10 min at 4° C. and protein concentrations were assessed using BCA assay (Pierce, Cat. No. 23225). Same amounts of protein (30 μg) for each sample were loaded onto sodium dodecyl sulfate-polyacrylamide gel, separated by electrophoresis (Bio-Rad) at 120 V for 1.5 h and transferred to PVDF membrane using a Transblot Turbo system (Bio-Rad). […] All Western blots were subsequently processed and quantified with Imager software ImageJ and protein level was normalized to the B-actin loading controls.

BTK [2] = biological target: T1, BTK; experiment: Western blotting for BTK in Mino cells; assay type: cell-based; design: host or cells: Mino; settings: 24 h, Western blot
Procedure: Mino cells were seeded into the wells of six-well plates at the density of 5×10^5 cells per mL in 2 mL of complete RPMI-1640 culture medium. After overnight adaptation, cells were treated with serially diluted compounds (from 1,000-1.6 nM, 5-fold dilution) for 24 hours. After treatment, whole cell lysates for immunoblotting were prepared by pelleting Mino cells at 4° C. and 200×g for 5 minutes. The resulting cell pellets were washed once with ice-cold PBS and lysed in 1×RIPA lysis buffer (Alfa Aesar, Cat. No. J62524) supplemented with protease and phosphatase inhibitor cocktail (Thermo Fisher, Cat. No. 78430). Lysates were centrifuged at 15,000×g for 10 min at 4° C. and protein concentrations were assessed using BCA assay (Pierce, Cat. No. 23225). Same amounts of protein (30 μg) for each sample were loaded onto sodium dodecyl sulfate-polyacrylamide gel, separated by electrophoresis (Bio-Rad) at 120 V for 1.5 h and transferred to PVDF membrane using a Transblot Turbo system (Bio-Rad). After blocking for 1 h at room temperature in 1% BSA-TBST, the membranes were immunoblotted with the specified primary antibodies at the dilution of 1:1000 in TBST (Cell Signaling Technology: anti-BTK Cat. No. 8547, anti-IKZF1 Cat. No. 14859, anti-IKZF3 Cat. No. 15103, anti-β-actin Cat. No. 4570, Proteintech: anti-GSPT1, Cat. No. 10763-1-AP) overnight at 4° C. and the HRP-conjugated secondary antibodies (Cell Signaling, Cat. No. 7074, 1:1000 in TBST) for 1 h at room temperature. Imaging was performed using the ECL Prime chemiluminescent Western blot detection reagents (Kindle Biosciences, Cat. No. R1100) by visualization of the blots with an Imager (Kindle Biosciences, Cat. No. D1001). All Western blots were subsequently processed and quantified with Imager software ImageJ and protein level was normalized to the B-actin loading controls.
Target sequence in this assay (Q06187 whole entry): as the sequence (Q06187 whole entry, species assumed) above

BTK-nLuc fusion protein [3] = biological target: T3, BTK-nLuc fusion protein (Homo sapiens, UniProt Q06187+Q96SW2); experiment: BTK-nLuc endpoint degradation assay in HEK-293T cells; assay type: cell-based; settings: HEK-293T cells stably expressing BTK-nLuc, 24 h
T3 construct: Addgene (vector) HsCD00514411; pLenti6.2-ccdB-Nanoluc 87078; host or cells: HEK-293T17
Procedure: (§1) DD-03-171 is a known BTK degrader and used as a positive control. Panel f: HEK-293T cells stably expressing a BTK-nLuc fusion protein were treated with indicated compounds (same as in a-e) for 24 h. The BTK degradation was determined by evaluating luminescence signals of NanoLuc.
(§2) The nanoluc activity was determined using the furimazine substrate (Promega, Cat. No. N1110). Briefly, after 4 h incubation of indicated compounds, cells were directly lysed by addition of 100 μL of nanoluciferase detection solution, containing lysis buffer and furimazine (1/50 dilution). For the 24-hour treatment group, the old medium was replaced with 100 μL fresh opti-MEM, followed by the addition of equal volume of lysis buffer plus furimazine (1/50 dilution).

BTK-nLuc fusion protein [4] = biological target: T4, BTK-nLuc fusion protein (Homo sapiens, UniProt Q06187); experiment: as above; assay type: cell-based; settings: HEK-293T cells stably expressing BTK-nLuc, 24 h
T4 construct: Addgene (vector) HsCD00514411; pLenti6.2-ccdB-Nanoluc 87078; host or cells: HEK-293T17
Procedure: as §1, §2

BTK [5] = biological target: T1, BTK; experiment: BTK ligand competition assay in Ramos cells (Western blotting for BTK); assay type: cell-based; design: host or cells: Ramos; settings: co-treated with 100 nM PS-2, 24 hours, PS2W at 50 μM
Target sequence in this assay (Q06187 whole entry): as the sequence (Q06187 whole entry, species assumed) above
Procedure: Ramos cells were incubated overnight, and then the indicated compounds were added and incubated for 24 hours, followed by Western blotting for BTK degradation.
Ramos cells were incubated overnight, and then the indicated compounds were added and incubated for 24 hours, followed by Western blotting for BTK degradation (FIG. 7).

T2 sequence (P15170 whole entry): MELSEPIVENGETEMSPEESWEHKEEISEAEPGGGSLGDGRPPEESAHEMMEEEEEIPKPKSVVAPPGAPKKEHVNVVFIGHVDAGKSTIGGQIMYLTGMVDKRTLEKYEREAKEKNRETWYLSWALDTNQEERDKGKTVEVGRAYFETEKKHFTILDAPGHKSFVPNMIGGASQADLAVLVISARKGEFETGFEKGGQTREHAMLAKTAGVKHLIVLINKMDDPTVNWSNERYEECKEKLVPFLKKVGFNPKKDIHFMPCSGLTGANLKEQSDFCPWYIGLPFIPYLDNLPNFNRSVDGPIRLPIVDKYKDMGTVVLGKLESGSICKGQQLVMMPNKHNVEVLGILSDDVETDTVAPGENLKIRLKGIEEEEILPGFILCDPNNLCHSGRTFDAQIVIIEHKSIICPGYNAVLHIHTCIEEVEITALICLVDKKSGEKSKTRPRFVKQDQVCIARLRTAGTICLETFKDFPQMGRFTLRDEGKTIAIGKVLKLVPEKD
T2 sequence (Q96SW2 whole entry): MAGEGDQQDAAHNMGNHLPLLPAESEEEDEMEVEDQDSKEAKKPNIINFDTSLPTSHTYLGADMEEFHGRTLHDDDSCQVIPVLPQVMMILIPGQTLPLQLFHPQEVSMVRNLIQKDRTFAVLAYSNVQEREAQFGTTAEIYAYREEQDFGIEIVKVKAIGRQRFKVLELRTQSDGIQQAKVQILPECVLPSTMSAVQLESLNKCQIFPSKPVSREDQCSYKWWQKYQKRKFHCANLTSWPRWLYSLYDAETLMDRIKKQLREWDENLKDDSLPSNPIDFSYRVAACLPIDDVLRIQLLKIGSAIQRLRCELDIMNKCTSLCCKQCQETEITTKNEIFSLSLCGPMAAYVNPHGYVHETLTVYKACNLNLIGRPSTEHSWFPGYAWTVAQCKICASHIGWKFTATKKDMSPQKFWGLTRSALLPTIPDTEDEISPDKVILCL
T2 sequence (Q16531 whole entry partner): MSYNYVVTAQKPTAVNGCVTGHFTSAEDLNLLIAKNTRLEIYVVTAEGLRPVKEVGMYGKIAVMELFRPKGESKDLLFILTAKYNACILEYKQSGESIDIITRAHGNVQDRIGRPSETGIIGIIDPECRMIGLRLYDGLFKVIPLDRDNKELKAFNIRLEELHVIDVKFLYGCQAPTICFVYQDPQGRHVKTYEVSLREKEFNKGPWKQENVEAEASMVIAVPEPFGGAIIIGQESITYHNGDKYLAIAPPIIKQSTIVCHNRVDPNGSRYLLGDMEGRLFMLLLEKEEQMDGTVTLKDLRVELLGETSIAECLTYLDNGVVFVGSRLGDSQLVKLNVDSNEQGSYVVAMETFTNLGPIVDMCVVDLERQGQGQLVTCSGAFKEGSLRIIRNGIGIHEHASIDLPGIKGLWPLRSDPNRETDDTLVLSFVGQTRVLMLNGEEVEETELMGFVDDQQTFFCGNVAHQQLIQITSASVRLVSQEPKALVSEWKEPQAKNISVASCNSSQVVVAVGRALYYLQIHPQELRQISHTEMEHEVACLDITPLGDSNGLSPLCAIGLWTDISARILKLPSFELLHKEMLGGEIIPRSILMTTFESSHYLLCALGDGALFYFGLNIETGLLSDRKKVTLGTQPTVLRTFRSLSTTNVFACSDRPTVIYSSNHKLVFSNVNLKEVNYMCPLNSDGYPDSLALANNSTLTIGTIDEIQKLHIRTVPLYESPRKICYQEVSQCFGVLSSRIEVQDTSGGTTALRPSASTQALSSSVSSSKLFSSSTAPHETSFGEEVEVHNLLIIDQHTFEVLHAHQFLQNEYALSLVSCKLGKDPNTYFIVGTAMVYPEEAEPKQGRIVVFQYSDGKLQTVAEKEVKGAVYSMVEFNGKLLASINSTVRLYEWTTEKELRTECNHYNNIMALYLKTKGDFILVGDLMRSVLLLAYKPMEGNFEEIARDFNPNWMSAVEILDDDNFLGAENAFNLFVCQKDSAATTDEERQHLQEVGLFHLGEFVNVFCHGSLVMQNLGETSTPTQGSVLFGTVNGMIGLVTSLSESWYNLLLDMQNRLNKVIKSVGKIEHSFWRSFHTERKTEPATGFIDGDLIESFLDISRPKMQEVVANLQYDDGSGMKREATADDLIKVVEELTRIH
T3 sequence (Q06187 whole entry, the tested form may be a part): as the sequence (Q06187 whole entry, species assumed) above
T3 sequence (Q96SW2 whole entry, the tested form may be a part): as the sequence (Q96SW2 whole entry) above
T3 sequence (Q16531 whole entry partner, the tested form may be a part): as the sequence (Q16531 whole entry partner) above
T4 sequence (Q06187 whole entry, the tested form may be a part): as the sequence (Q06187 whole entry, species assumed) above
T4 sequence (Q96SW2 whole entry, further chain, the tested form may be a part): as the sequence (Q96SW2 whole entry) above
T4 sequence (Q16531 whole entry partner, the tested form may be a part): as the sequence (Q16531 whole entry partner) above

## CC1=CC(C)=[N+]2C1=Cc1ccc(CCC(=O)NCCCN(C)CCCC(=O)N3CCC[C@@H](n4nc(-c5ccc(Oc6ccccc6)cc5)c5c(N)ncnc54)C3)n1[B-]2(F)F [BTK tracer]
BTK [1]
  pKd: 6.81

## Cc1ccc(NC(=O)NCc2ccc3c(c2)CN(C2CCC(=O)NC2=O)C3=O)cc1Cl (centres unmarked) [CC-885, reference compound]
GSPT1
  GSPT1 degradation (result in words): potent GSPT1 degrader

## Cc1c(NC(=O)c2ccc(C(C)(C)C)cc2)cccc1-c1cn(C)c(=O)c(Nc2ccc(C(=O)N3CCN(CCCCCCNC(=O)CNc4cccc5c4C(=O)N(C4CCC(=O)NC4=O)C5=O)CC3)cc2)n1 (centres unmarked) [DD-03-171, reference compound]
BTK [2]
  BTK WB Dmax: 99%
BTK [2]; read-out: BTK WB DC50
  DC50: 0.0009 µM
BTK [2]; up to 1000 nM
  BTK degradation (result in words): potently induces BTK degradation
BTK-nLuc fusion protein [3]
  DC50: 0.0259 µM
BTK-nLuc fusion protein [4]
  BTK-nLuc Dmax: 96%

## CN1CCN(c2ccc(Nc3nccc(Oc4ccccc4)n3)cc2)CC1 [PS2W]
BTK [5]
  competition with PS-2 induced BTK degradation (BTK ligand): cannot completely compete out
